Biological target: human dopamine transporter (hDAT) (Homo sapiens, UniProt Q01959)
Test: live-cell confocal imaging of ASP+ accumulation in hDAT-transfected EM4 cells
Assay type: cell-based

human dopamine transporter (hDAT), sequence (Q01959 whole entry): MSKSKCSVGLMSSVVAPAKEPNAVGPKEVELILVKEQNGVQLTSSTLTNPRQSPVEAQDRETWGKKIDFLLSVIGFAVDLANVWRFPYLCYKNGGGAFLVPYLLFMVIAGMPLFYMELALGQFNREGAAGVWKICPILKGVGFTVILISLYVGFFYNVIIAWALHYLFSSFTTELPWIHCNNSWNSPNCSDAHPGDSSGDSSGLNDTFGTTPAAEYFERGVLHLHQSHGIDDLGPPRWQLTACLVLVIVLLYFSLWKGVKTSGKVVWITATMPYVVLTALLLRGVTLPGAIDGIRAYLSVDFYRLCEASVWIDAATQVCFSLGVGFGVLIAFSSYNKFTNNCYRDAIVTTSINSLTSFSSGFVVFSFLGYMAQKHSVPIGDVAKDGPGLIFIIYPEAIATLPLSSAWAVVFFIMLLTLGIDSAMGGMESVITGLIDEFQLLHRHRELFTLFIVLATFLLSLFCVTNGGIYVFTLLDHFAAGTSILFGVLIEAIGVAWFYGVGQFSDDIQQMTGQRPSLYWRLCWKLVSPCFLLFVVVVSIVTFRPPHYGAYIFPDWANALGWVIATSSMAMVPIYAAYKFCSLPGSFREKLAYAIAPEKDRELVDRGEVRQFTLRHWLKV

With CCCCC/C=C\C/C=C\C/C=C\C/C=C\CCCC(=O)NCCO [AEA, anandamide] the IC50 was 3.2 ± 0.8 µM.

From PMC2951136 (Journal of neurochemistry, 2009)
